Experimental findings from patent US12240846B2 (Enliven Inc., priority 2020, dated 2025) are described below.

One assay has as its target T1, ABL1 (Homo sapiens, UniProt P00519).
T1 construct: purchased Carna Biosciences
Briefly: Luminescence-based ABL kinase assay (300 μM ATP), ADP-Glo. Format: biochemical. The source says: Compounds were serially diluted in DMSO. […] Luminescence signal positively correlates with kinase activity.
On the technique in general: ADP-Glo turns the ADP formed in a reaction into a luminescent signal.

Another assay has as its target ABL1 (T315I) (Homo sapiens, UniProt P00519, T315I). The assay is described as above. Format: biochemical.

The structures appear in SMILES notation. Where “and” joins values, the source holds several entries; their conditions need not be identical. Equal values may be shown once.

The term IC50 denotes the concentration that gives 50% inhibition. A higher IC50 goes with lower potency.

With `COc1ccccc1-c1cc2cc(NC(=O)[C@H]3C[C@H]3CN3CCN(C)CC3)ncc2n1C` (relative stereo) [Compound 40, cis-N-(2-(2-methoxyphenyl)-1-methyl-1H-pyrrolo[2,3-c]pyridin-5-yl)-2-((4-methylpiperazin-1-yl)methyl)cyclopropane-1-carboxamide], the values for the IC50 against ABL1 and on ABL1 (T315I) were 113 nM and 145 nM, respectively.

For the compound `COc1ccccc1-c1cc2cc(NC(=O)[C@H]3C[C@H]3CN3CCOCC3)ncc2n1C` (relative stereo) [Compound 41, cis-N-(2-(2-methoxyphenyl)-1-methyl-1H-pyrrolo[2,3-c]pyridin-5-yl)-2-(morpholinomethyl)cyclopropane-1-carboxamide], the IC50 against ABL1 was 324 nM; at ABL1 (T315I) it was 212 nM.

On to `COc1ncc(F)c(OC)c1-c1cc2cc(NC(=O)[C@H]3C[C@@H]3CN(C)C)ncc2n1C` (single isomer, unassigned) [Compound 131], for which the IC50 on ABL1 and against ABL1 (T315I) was 78.3 nM each time.

Regarding `COc1ccnc(OC)c1-c1cc2cc(NC(=O)[C@@H]3C[C@H]3CN3CCNCC3)ncc2n1C` (single isomer, unassigned) [Compound 139], the IC50 against ABL1 was 48.6 nM; on ABL1 (T315I), 85.9 nM.

For `COc1ccnc(OC)c1-c1cc2cc(NC(=O)[C@H]3C[C@@H]3CN3CC4CC(C3)N4)ncc2n1C` (single isomer, unassigned) [Example 135, Enantiomer 1], the IC50 on ABL1 turned out to be 30 nM; at ABL1 (T315I), 66.7 nM.

Consider `COc1ccnc(OC)c1-c1cc2cc(NC(=O)[C@@H]3C[C@H]3CN3CC4CC(C3)N4)ncc2n1C` (single isomer, unassigned) [Example 135, Enantiomer 2], for which the IC50 on ABL1 was found to be 10.6 nM; on ABL1 (T315I), 26 nM.

Take `Cn1c(-c2ccccc2OCCO)cc2cc(NC(=O)C3CC3)ncc21` [Compound 4, N-[2-[2-(2-hydroxyethoxy)phenyl]-1-methylpyrrolo[2,3-c]pyridin-5-yl]cyclopropanecarboxamide]: the IC50 came out at 817 nM on ABL1 and 599 nM against ABL1 (T315I).

For `Cc1c(-c2cc3cc(NC(=O)C4CC4)ncc3n2C)ccc2c1CCN2` [Compound 13, N-[1-methyl-2-(4-methyl-2,3-dihydro-1H-indol-5-yl)pyrrolo[2,3-c]pyridin-5-yl]cyclopropanecarboxamide], the IC50 on ABL1 is 567 nM; at ABL1 (T315I) it was 300 nM.

Regarding `Cc1cc2[nH]ccc2cc1-c1cc2cc(NC(=O)C3CC3)ncc2n1C` [Compound 14, N-(1-methyl-2-(6-methyl-1H-indol-5-yl)-1H-pyrrolo[2,3-c]pyridin-5-yl)cyclopropanecarboxamide], the values for the IC50 on ABL1 and against ABL1 (T315I) were 29.6 nM and 124 nM, respectively.

Regarding `Cc1c(-c2cc3cc(NC(=O)C4CC4)ncc3n2C)ccc2[nH]ccc12` [Compound 15, N-[1-methyl-2-(4-methyl-1H-indol-5-yl)pyrrolo[2,3-c]pyridin-5-yl]cyclopropanecarboxamide], the IC50 worked out at 103 nM against ABL1 and 101 nM against ABL1 (T315I).

Turning to `Cc1cc2[nH]ncc2cc1-c1cc2cc(NC(=O)C3CC3)ncc2n1C` [Compound 16, N-(1-methyl-2-(6-methyl-1H-indazol-5-yl)-1H-pyrrolo[2,3-c]pyridin-5-yl)cyclopropanecarboxamide], the results for the IC50 at ABL1 and at ABL1 (T315I) were 184 nM and 545 nM, respectively.

Consider `Cc1cc2[nH]cnc2cc1-c1cc2cc(NC(=O)C3CC3)ncc2n1C` [Compound 17, N-[1-methyl-2-(6-methyl-1H-1,3-benzodiazol-5-yl)pyrrolo[2,3-c]pyridin-5-yl]cyclopropanecarboxamide], for which the IC50 came to 59.7 nM on ABL1 and 160 nM on ABL1 (T315I).

With `Cc1c(-c2cc3cc(NC(=O)C4CC4)ncc3n2C)ccc2[nH]ncc12` [Compound 18, N-[1-methyl-2-(4-methyl-1H-indazol-5-yl)pyrrolo[2,3-c]pyridin-5-yl]cyclopropanecarboxamide], the IC50 was found to be 743 nM against ABL1 and 336 nM at ABL1 (T315I).

In the case of `Cc1c(-c2cc3cc(NC(=O)C4CC4)ncc3n2C)ccc2[nH]cnc12` [Compound 19, N-[1-methyl-2-(4-methyl-1H-1,3-benzodiazol-5-yl)pyrrolo[2,3-c]pyridin-5-yl]cyclopropanecarboxamide], the IC50 stood at 263 nM on ABL1 and 68.3 nM against ABL1 (T315I).

For `Cc1cccnc1-c1cc2cc(NC(=O)C3CC3)ncc2n1C` [Compound 20, N-[1-methyl-2-(3-methylpyridin-2-yl)pyrrolo[2,3-c]pyridin-5-yl]cyclopropanecarboxamide], the IC50 is greater than 10000 nM at ABL1 and 999 nM against ABL1 (T315I).

Consider `[2H]C([2H])([2H])Oc1ncccc1-c1cc2cc(NC(=O)[C@H]3C[C@H]3F)ncc2n1C` [Compound 33, (1R,2R)-2-fluoro-N-(2-(2-(methoxy-d3)pyridin-3-yl)-1-methyl-1H-pyrrolo[2,3-c]pyridin-5-yl)cyclopropane-1-carboxamide], for which the IC50 against ABL1 was 59.5 nM; at ABL1 (T315I), 183 nM.

On to `CCOc1ncccc1-c1cc2cc(NC(=O)[C@H]3C[C@H]3F)ncc2n1C` [Compound 37, (1R,2R)-N-[2-(2-ethoxypyridin-3-yl)-1-methylpyrrolo[2,3-c]pyridin-5-yl]-2-fluorocyclopropane-1-carboxamide], for which the IC50 stood at 35.4 nM against ABL1 and 551 nM on ABL1 (T315I).

As for `COc1cccc(F)c1-c1c(C)c2cc(NC(=O)[C@H]3C[C@H]3F)ncc2n1C` [Compound 45, (1R,2R)-2-fluoro-N-[2-(2-fluoro-6-methoxyphenyl)-1,3-dimethylpyrrolo[2,3-c]pyridin-5-yl]cyclopropane-1-carboxamide], the values for the IC50 at ABL1 and on ABL1 (T315I) were 220 nM and 17.9 nM, respectively.

Consider `COc1ncccc1-c1cc2cnc(NC(=O)C3CC3)cc2n1C` [Compound 50, N-[2-(2-methoxypyridin-3-yl)-1-methylpyrrolo[3,2-c]pyridin-6-yl]cyclopropanecarboxamide], for which the IC50 against ABL1 came out at 294 nM; against ABL1 (T315I) it was 681 nM.

Consider `COc1ccccc1-c1cc2cnc(NC(=O)[C@@H]3C[C@@H]3F)cc2n1C` [Compound 51, (1S,2S)-2-fluoro-N-[2-(2-methoxyphenyl)-1-methylpyrrolo[3,2-c]pyridin-6-yl]cyclopropane-1-carboxamide], for which the IC50 amounted to 88.6 nM on ABL1 and 64.1 nM against ABL1 (T315I).

On to `COc1cccc(F)c1-c1c(C)c2cnc(NC(=O)[C@H]3C[C@H]3F)cc2n1C` [Compound 55, (1R,2R)-2-fluoro-N-[2-(2-fluoro-6-methoxyphenyl)-1,3-dimethylpyrrolo[3,2-c]pyridin-6-yl]cyclopropane-1-carboxamide], for which the IC50 worked out at 71.3 nM against ABL1 and 7.24 nM at ABL1 (T315I).

On to `CCn1c(-c2cccnc2OC)cc2cc(NC(=O)[C@@H]3C[C@@H]3F)ncc21` [Compound 63, (1S,2S)-N-(1-ethyl-2-(2-methoxypyridin-3-yl)-1H-pyrrolo[2,3-c]pyridin-5-yl)-2-fluorocyclopropane-1-carboxamide], for which the IC50 on ABL1 was 1430 nM and 1350 nM; at ABL1 (T315I) it was 2670 nM and 4510 nM.

Turning to `COc1ncncc1-c1cc2cc(NC(=O)[C@@H]3C[C@@H]3F)ncc2n1C` [Compound 68, (1S,2S)-2-fluoro-N-(2-(4-methoxypyrimidin-5-yl)-1-methyl-1H-pyrrolo[2,3-c]pyridin-5-yl)cyclopropane-1-carboxamide], the IC50 against ABL1 is 109 nM; at ABL1 (T315I) it was 431 nM.
